In ChEMBL document CHEMBL1154382, “Preliminary SAR analysis of novel antiproliferative N(6),5'-bis-ureidoadenosine derivatives” (2009):

How the values were obtained:
Type in all cases: functional
[1] = test system: HCC 2998; assay: Antiproliferative activity against human HCC2998 cells
[2] = test system: CAKI-1; assay: Antiproliferative activity against human Caki1 cells
[3] = test system: SK-MEL-2; assay: Antiproliferative activity against human SK-MEL-2 cells
[4] = test system: U-251; assay: Antiproliferative activity against human U251 cells
[5] = test system: KM12; assay: Antiproliferative activity against human KM12 cells
[6] = test system: UO-31; assay: Antiproliferative activity against human UO31 cells
[7] = test system: SN12C; assay: Antiproliferative activity against human SN12C cells
[8] = test system: SF-268; assay: Antiproliferative activity against human SF268 cells
[9] = test system: T47D; assay: Antiproliferative activity against human T47D cells
[10] = test system: K562; assay: Antiproliferative activity against human K562 cells
[11] = test system: SW-620; assay: Antiproliferative activity against human SW620 cells
[12] = test system: ACHN; assay: Antiproliferative activity against human ACHN cells
[13] = test system: IGROV-1; assay: Antiproliferative activity against human IGROV1 cells
[14] = test system: MCF7; assay: Antiproliferative activity against human MCF7 cells
[15] = test system: BT-549; assay: Antiproliferative activity against human BT549 cells
[16] = test system: OVCAR-3; assay: Antiproliferative activity against human OVCAR-3 cells
[17] = test system: SK-OV-3; assay: Antiproliferative activity against human SKOV3 cells
[18] = test system: NCI-H226; assay: Antiproliferative activity against human NCI-H226 cells
[19] = test system: OVCAR-4; assay: Antiproliferative activity against human OVCAR4 cells
[20] = test system: LOX IMVI; assay: Antiproliferative activity against human LOXIMVI cells
[21] = test system: Malme-3M; assay: Antiproliferative activity against human MALME-3M cells
[22] = test system: SR; assay: Antiproliferative activity against human SR cells
[23] = test system: NCI-H522; assay: Antiproliferative activity against human NCI-H522 cells
[24] = test system: EKVX; assay: Antiproliferative activity against human EKVX cells
[25] = test system: RXF 393; assay: Antiproliferative activity against human RXF393 cells
[26] = test system: A498; assay: Antiproliferative activity against human A498 cells
[27] = test system: DU-145; assay: Antiproliferative activity against human DU145 cells
[28] = test system: SK-MEL-28; assay: Antiproliferative activity against human SK-MEL-28 cells
[29] = test system: NCI-H460; assay: Antiproliferative activity against human NCI-H460 cells
[30] = test system: M14; assay: Antiproliferative activity against human M14 cells
[31] = test system: MDA-MB-435; assay: Antiproliferative activity against human MDA-MB-435 cells
[32] = test system: MDA-MB-231; assay: Antiproliferative activity against human MDA-MB-231 cells
[33] = test system: HOP-92; assay: Antiproliferative activity against human HOP92 cells
[34] = test system: SF-539; assay: Antiproliferative activity against human SF539 cells
[35] = test system: SK-MEL-5; assay: Antiproliferative activity against human SK-MEL-5 cells
[36] = test system: HCT-15; assay: Antiproliferative activity against human HCT15 cells
[37] = test system: UACC-257; assay: Antiproliferative activity against human UACC257 cells
[38] = test system: HCT-116; assay: Antiproliferative activity against human HCT116 cells
[39] = test system: MOLT-4; assay: Antiproliferative activity against human MOLT4 cells
[40] = test system: PC-3; assay: Antiproliferative activity against human PC3 cells
[41] = test system: COLO 205; assay: Antiproliferative activity against human COLO205 cells
[42] = Antiproliferative activity against human […] cells
[43] = test system: CCRF-CEM; assay: Antiproliferative activity against human CCRF-CEM cells
[44] = test system: SNB-19; assay: Antiproliferative activity against human SNB19 cells
[45] = test system: HOP-62; assay: Antiproliferative activity against human HOP62 cells
[46] = test system: 786-0; assay: Antiproliferative activity against human 786-0 cells
[47] = test system: OVCAR-5; assay: Antiproliferative activity against human OVCAR5 cells
[48] = test system: HT-29; assay: Antiproliferative activity against human HT-29 cells
[49] = test system: NCI-H322M; assay: Antiproliferative activity against human NCI-H322M cells
[50] = test system: NCI-H23; assay: Antiproliferative activity against human NCI-H23 cells
[51] = test system: A549; assay: Antiproliferative activity against human A549 cells
[52] = test system: UACC-62; assay: Antiproliferative activity against human UACC62 cells
[53] = test system: SNB-75; assay: Antiproliferative activity against human SNB75 cells
[54] = test system: TK-10; assay: Antiproliferative activity against human TK10 cells
[55] = test system: SF-295; assay: Antiproliferative activity against human SF295 cells
[56] = test system: OVCAR-8; assay: Antiproliferative activity against human OVCAR8 cells
[57] = Antiproliferative activity against human Hs 578T cells
[58] = test system: HL-60(TB); assay: Antiproliferative activity against human HL-60(TB) cells

Compound: CCOC(=O)C[C@H]1[C@@H](O[Si](C)(C)C(C)(C)C)[C@H](n2cnc3c(NC(=O)Nc4ccccc4)ncnc32)O[C@@H]1CNC(=O)NC
- GI50 [1]: > 100 µM
- GI50 [2]: 29.7 µM
- GI50 [3]: 5.42 µM
- GI50 [4]: 4.69 µM
- GI50 [5]: 3.95 µM
- GI50 [6]: 12.1 µM
- GI50 [7]: 9.1 µM
- GI50 [8]: 6.53 µM
- GI50 [9]: 2.55 µM
- GI50 [10]: 3.59 µM
- GI50 [11]: 4.8 µM
- GI50 [12]: 8.55 µM
- GI50 [13]: 3.85 µM
- GI50 [14]: 3.42 µM
- GI50 [15]: > 100 µM
- GI50 [16]: 4.59 µM
- GI50 [17]: 21 µM
- GI50 [18]: > 100 µM
- GI50 [19]: 12.3 µM
- GI50 [20]: 5.46 µM
- GI50 [21]: 10.3 µM
- GI50 [22]: 2.23 µM
- GI50 [23]: 4.36 µM
- GI50 [24]: 17.7 µM
- GI50 [25]: 2.01 µM
- GI50 [26]: 3.34 µM
- GI50 [27]: 4.97 µM
- GI50 [28]: 6.85 µM
- GI50 [29]: 5.54 µM
- GI50 [30]: 2.51 µM
- GI50 [31]: 6.21 µM
- GI50 [32]: 3.96 µM
- GI50 [33]: < 0.01 µM
- GI50 [34]: 5.19 µM
- GI50 [35]: 4.34 µM
- GI50 [36]: 8.5 µM
- GI50 [37]: 5.68 µM
- GI50 [38]: 3.2 µM
- GI50 [39]: 2.39 µM
- GI50 [40]: 2.25 µM
- GI50 [41]: 3.84 µM
- GI50 [42]: 1.09 µM
- GI50 [43]: 6.69 µM
- GI50 [44]: 29 µM
- GI50 [45]: 8.96 µM
- GI50 [46]: 2 µM
- GI50 [47]: 31.1 µM
- GI50 [48]: 4.2 µM
- GI50 [49]: > 100 µM
- GI50 [50]: 33.3 µM
- GI50 [51]: 4.18 µM
- GI50 [52]: > 100 µM
- GI50 [53]: 4.56 µM
- GI50 [54]: 12.4 µM
- GI50 [55]: 5.73 µM
- GI50 [56]: 4.92 µM
- GI50 [57]: 3.6 µM
- GI50 [58]: 0.00301 µM
